Among the data in ChEMBL document CHEMBL1909046, “DrugMatrix in vitro pharmacology data” are IC50 and Ki values, retold here.

One test concerns the target D(1A) dopamine receptor (Homo sapiens, UniProt P21728). Kind of test: DRUGMATRIX: Dopamine D1 radioligand binding (ligand: [3H] SCH-23390). It is filed as cell membranes, CHO, Membrane. The note with it: Not Active = under 50% inhibition at 10 µM; for IC50: cho.
The target of test [1] is Sodium-dependent dopamine transporter (Homo sapiens, UniProt Q01959). Kind of test: DRUGMATRIX: Dopamine Transporter radioligand binding (ligand: [125I] RTI-55). It is filed as cell membranes, CHO-K1, Membrane. The note with it: Not Active = under 50% inhibition at 10 µM; for IC50: cho-k1.
The target in the next test is T1, Endothelin-1 receptor (Homo sapiens, UniProt P25101). Also: in other assays of this panel Not Active means under 50% inhibition at 10 µM.
T1 sequence (P25101 whole entry): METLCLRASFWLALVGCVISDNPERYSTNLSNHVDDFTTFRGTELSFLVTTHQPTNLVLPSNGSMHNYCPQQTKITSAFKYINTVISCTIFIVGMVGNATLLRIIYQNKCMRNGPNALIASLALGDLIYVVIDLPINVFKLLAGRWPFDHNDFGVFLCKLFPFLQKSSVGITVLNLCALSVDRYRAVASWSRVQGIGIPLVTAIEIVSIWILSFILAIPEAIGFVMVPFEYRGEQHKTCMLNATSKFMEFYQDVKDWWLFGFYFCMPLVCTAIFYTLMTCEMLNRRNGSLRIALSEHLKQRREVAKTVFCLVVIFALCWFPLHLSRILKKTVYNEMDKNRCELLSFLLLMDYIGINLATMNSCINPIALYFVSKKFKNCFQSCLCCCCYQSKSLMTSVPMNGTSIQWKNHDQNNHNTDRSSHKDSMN
It is filed as cell membranes, Membrane. The note with it: cho-k1.

The next test concerns the target T2, Leukotriene C4 synthase (Cavia porcellus, UniProt A6XA80).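 Also: enzyme inhibition assay of leukotriene C4 synthase, using LTA4 as the substrate; in other assays of this panel Not Active means under 50% inhibition at 10 µM.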
T2 sequence (A6XA80 whole entry): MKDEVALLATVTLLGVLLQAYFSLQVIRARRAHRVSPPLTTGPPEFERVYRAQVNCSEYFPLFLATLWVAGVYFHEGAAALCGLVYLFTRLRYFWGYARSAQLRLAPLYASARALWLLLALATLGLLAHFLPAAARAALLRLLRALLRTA
The test is classed as tissue-based, Lung.

A further test concerns the target Melanocortin receptor 4 (Homo sapiens, UniProt P32245). The test is classed as cell membranes, Membrane. The note with it: hek293. Also: in other assays of this panel Not Active means under 50% inhibition at 10 µM.
For test [2], the target named is Mitogen-activated protein kinase 3 (Homo sapiens, UniProt P27361). Put plainly: DRUGMATRIX: Protein Serine/Threonine Kinase, ERK1 enzyme inhibition (substrate: Myelin Basic Protein). Set-up: species or system Escherichia coli. The note with it: Not Active = under 50% inhibition at 10 µM.

pIC50, pKi: −log10 of the molar value.

Chain of Melanocortin receptor 4 (P32245 whole entry): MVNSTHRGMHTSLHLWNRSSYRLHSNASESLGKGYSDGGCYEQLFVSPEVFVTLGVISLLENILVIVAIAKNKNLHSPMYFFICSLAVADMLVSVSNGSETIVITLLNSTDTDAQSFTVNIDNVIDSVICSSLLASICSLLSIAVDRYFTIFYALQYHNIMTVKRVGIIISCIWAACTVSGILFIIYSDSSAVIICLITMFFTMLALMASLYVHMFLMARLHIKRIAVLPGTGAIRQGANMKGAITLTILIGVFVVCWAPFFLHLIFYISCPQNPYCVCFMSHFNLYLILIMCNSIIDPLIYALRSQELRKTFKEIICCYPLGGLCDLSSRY
Chain of D(1A) dopamine receptor (P21728 whole entry): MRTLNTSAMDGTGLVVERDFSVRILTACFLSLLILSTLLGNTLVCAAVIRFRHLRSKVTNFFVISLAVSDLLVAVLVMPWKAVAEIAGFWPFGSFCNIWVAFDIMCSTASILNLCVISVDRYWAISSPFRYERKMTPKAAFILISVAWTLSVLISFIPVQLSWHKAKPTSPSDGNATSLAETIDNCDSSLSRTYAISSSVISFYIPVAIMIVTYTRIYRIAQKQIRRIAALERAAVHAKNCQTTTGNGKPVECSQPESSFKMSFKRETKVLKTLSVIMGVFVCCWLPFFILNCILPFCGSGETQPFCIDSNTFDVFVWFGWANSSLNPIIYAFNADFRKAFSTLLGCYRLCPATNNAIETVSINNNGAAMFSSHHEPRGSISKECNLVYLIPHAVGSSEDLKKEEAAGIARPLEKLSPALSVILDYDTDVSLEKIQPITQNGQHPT
Chain of Mitogen-activated protein kinase 3 (P27361 whole entry): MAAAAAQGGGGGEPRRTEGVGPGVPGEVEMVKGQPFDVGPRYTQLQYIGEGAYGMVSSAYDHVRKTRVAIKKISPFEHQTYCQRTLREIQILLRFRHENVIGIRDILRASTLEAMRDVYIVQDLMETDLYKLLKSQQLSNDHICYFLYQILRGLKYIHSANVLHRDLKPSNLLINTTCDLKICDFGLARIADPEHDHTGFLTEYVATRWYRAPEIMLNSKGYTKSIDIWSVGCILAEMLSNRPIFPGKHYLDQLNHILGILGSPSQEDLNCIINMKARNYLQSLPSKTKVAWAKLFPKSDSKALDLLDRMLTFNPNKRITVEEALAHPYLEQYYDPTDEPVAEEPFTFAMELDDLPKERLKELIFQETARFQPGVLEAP
Chain of Sodium-dependent dopamine transporter (Q01959 whole entry): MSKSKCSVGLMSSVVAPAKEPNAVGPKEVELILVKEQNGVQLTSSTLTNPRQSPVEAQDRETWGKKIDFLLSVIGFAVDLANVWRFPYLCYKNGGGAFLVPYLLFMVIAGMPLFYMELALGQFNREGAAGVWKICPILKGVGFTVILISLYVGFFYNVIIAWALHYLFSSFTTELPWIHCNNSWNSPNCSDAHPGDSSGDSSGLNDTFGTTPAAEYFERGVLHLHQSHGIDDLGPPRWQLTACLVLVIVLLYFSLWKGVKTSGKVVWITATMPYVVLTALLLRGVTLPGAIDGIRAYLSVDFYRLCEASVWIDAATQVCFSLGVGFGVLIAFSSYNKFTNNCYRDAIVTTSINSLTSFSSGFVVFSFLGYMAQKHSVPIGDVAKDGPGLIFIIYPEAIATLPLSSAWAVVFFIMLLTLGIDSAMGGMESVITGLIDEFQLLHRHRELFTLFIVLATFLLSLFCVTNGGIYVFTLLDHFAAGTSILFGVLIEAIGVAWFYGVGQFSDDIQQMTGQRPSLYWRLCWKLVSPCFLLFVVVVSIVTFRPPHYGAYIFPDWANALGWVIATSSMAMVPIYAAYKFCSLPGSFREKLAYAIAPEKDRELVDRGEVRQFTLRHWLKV

On to `CCCCC1=NC2(CCCC2)C(=O)N1Cc1ccc(-c2ccccc2-c2nnn[nH]2)cc1` [IRBESARTAN], for which the IC50 entry (at D(1A) dopamine receptor; in test [1]; against Endothelin-1 receptor; against Leukotriene C4 synthase; against Melanocortin receptor 4; in test [2]) was “Not Active” throughout.
On to `CN1CCC(=C2c3ccccc3CC(=O)c3sccc32)CC1` [KETOTIFEN], for which the pIC50 (commonly the negative decadic logarithm of the IC50, by convention in mol/L) at D(1A) dopamine receptor (read-out: IC50) is 6.06. Further, on D(1A) dopamine receptor (read-out: Ki), the pKi (in general, the negative decadic logarithm of the Ki, by convention in mol/L) is 6.36. The IC50 entry (in test [1]; against Endothelin-1 receptor; against Leukotriene C4 synthase; against Melanocortin receptor 4; in test [2]) was “Not Active” throughout.
For `N[C@@H](Cn1ccc(=O)c(O)c1)C(=O)O` [L-MIMOSINE], the IC50 result (on D(1A) dopamine receptor; in test [1]; against Endothelin-1 receptor; against Leukotriene C4 synthase; on Melanocortin receptor 4; in test [2]) was “Not Active” in each case.
As for `C[N+](C)(C)C[C@H](O)CC(=O)[O-]` [LEVOCARNITINE], the IC50 result (on D(1A) dopamine receptor; in test [1]; against Endothelin-1 receptor; on Leukotriene C4 synthase; against Melanocortin receptor 4; in test [2]) was “Not Active” in each case.
Regarding `C[C@H]1COc2c(N3CCN(C)CC3)c(F)cc3c(=O)c(C(=O)O)cn1c23.C[C@H]1COc2c(N3CCN(C)CC3)c(F)cc3c(=O)c(C(=O)O)cn1c23.O` [LEVOFLOXACIN], the IC50 result (at D(1A) dopamine receptor; in test [1]; at Endothelin-1 receptor; on Leukotriene C4 synthase; on Melanocortin receptor 4; in test [2]) was “Not Active” in each case.
Consider `CCn1cc(C(=O)O)c(=O)c2cc(F)c(N3CCNC(C)C3)c(F)c21` (stereo not drawn) [LOMEFLOXACIN], for which the IC50 entry (at D(1A) dopamine receptor; in test [1]; against Endothelin-1 receptor; against Leukotriene C4 synthase; against Melanocortin receptor 4; in test [2]) was “Not Active” in each case.
Regarding `CN1CCCC(CN2c3ccccc3Sc3ccccc32)C1` (stereo not drawn) [MEPAZINE], the IC50 entry (at D(1A) dopamine receptor; in test [1]; on Endothelin-1 receptor; on Leukotriene C4 synthase; against Melanocortin receptor 4; in test [2]) was “Not Active” each time.
On to `Cc1cccc(C)c1NC(=O)C1CCCCN1C` (stereo not drawn) [MEPIVACAINE], for which the IC50 result (on D(1A) dopamine receptor; in test [1]; on Endothelin-1 receptor; against Leukotriene C4 synthase; on Melanocortin receptor 4; in test [2]) was “Not Active” in each case.
Take `CN(C)C(=N)NC(=N)N` [METFORMIN]: the IC50 result (on D(1A) dopamine receptor; in test [1]; against Endothelin-1 receptor; at Leukotriene C4 synthase; against Melanocortin receptor 4; in test [2]) was “Not Active” in each case.
Regarding `CC(C)(C)NCC(O)COc1cccc2c1CC(O)C(O)C2` (stereo not drawn) [NADOLOL], the IC50 result (on D(1A) dopamine receptor; in test [1]; against Endothelin-1 receptor; against Leukotriene C4 synthase; against Melanocortin receptor 4; in test [2]) was “Not Active” throughout.
In the case of `C[C@]12CC[C@H]3[C@@H](CCC4=CC(=O)CC[C@@H]43)[C@@H]1CC[C@@H]2O` [NANDROLONE], the IC50 entry (at D(1A) dopamine receptor; in test [1]; against Endothelin-1 receptor; against Leukotriene C4 synthase; against Melanocortin receptor 4; in test [2]) was “Not Active” throughout.
In the case of `C[C@@H]1C/C=C/C=C/C=C/C=C/[C@H](O[C@@H]2O[C@H](C)[C@@H](O)[C@H](N)[C@@H]2O)C[C@@H]2O[C@](O)(C[C@@H](O)C[C@H]3O[C@@H]3/C=C/C(=O)O1)C[C@H](O)[C@H]2C(=O)O` [NATAMYCIN], the IC50 result (on D(1A) dopamine receptor; in test [1]; on Endothelin-1 receptor; on Leukotriene C4 synthase; at Melanocortin receptor 4; in test [2]) was “Not Active” each time.
Regarding `CN(C)C(=O)Oc1cccc([N+](C)(C)C)c1.[Br-]` [NEOSTIGMINE BROMIDE], the IC50 result (at D(1A) dopamine receptor; in test [1]; on Endothelin-1 receptor; at Leukotriene C4 synthase; against Melanocortin receptor 4; in test [2]) was “Not Active” in each case.
With `NC(=O)c1cccnc1` [NIACINAMIDE], the IC50 entry (on D(1A) dopamine receptor; in test [1]; against Endothelin-1 receptor; at Leukotriene C4 synthase; on Melanocortin receptor 4; in test [2]) was “Not Active” each time.
For the molecule `CS(=O)(=O)Nc1ccc([N+](=O)[O-])cc1Oc1ccccc1` [NIMESULIDE], the IC50 entry (on D(1A) dopamine receptor; at Endothelin-1 receptor; against Leukotriene C4 synthase; on Melanocortin receptor 4; in test [2]) was “Not Active” in each case. The pIC50 in test [1] (read-out: IC50) was 4.83. Also, the pKi in test [1] (read-out: Ki) was 4.93.
With `CN1C(=O)CN=C(c2ccccc2)c2cc([N+](=O)[O-])ccc21` [NIMETAZEPAM], the IC50 entry (on D(1A) dopamine receptor; in test [1]; on Endothelin-1 receptor; against Leukotriene C4 synthase; at Melanocortin receptor 4; in test [2]) was “Not Active” each time.
Take `COc1ccc2c(c1OC)C(=O)O[C@@H]2[C@H]1c2c(cc3c(c2OC)OCO3)CCN1C` [NOSCAPINE]: the IC50 entry (at D(1A) dopamine receptor; in test [1]; against Endothelin-1 receptor; against Leukotriene C4 synthase; against Melanocortin receptor 4; in test [2]) was “Not Active” in each case.
Consider `C[C@@H]1O[C@@H](O[C@H]2C[C@@H](O)[C@]3(CO)[C@H]4[C@H](O)C[C@]5(C)[C@@H](C6=CC(=O)OC6)CC[C@]5(O)[C@@H]4CC[C@]3(O)C2)[C@H](O)[C@H](O)[C@H]1O` [OUABAIN], for which the IC50 result (on D(1A) dopamine receptor; in test [1]; against Endothelin-1 receptor; against Leukotriene C4 synthase; against Melanocortin receptor 4; in test [2]) was “Not Active” in each case.
On to `NC(=O)N1c2ccccc2CC(=O)c2ccccc21` [OXCARBAZEPINE], for which the IC50 entry (on D(1A) dopamine receptor; in test [1]; against Endothelin-1 receptor; against Leukotriene C4 synthase; against Melanocortin receptor 4; in test [2]) was “Not Active” in each case.
With `COc1ccnc(C[S+]([O-])c2nc3ccc(OC(F)F)cc3[nH]2)c1OC` (stereo not drawn) [PANTOPRAZOLE], the IC50 result (on D(1A) dopamine receptor; in test [1]; against Endothelin-1 receptor; against Leukotriene C4 synthase; against Melanocortin receptor 4; in test [2]) was “Not Active” throughout.
With `NNCCc1ccccc1` [PHENELZINE], the IC50 entry (on D(1A) dopamine receptor; in test [1]; against Endothelin-1 receptor; at Leukotriene C4 synthase; at Melanocortin receptor 4; in test [2]) was “Not Active” in each case.
For the molecule `CCc1ccc(CCOc2ccc(CC3SC(=O)NC3=O)cc2)nc1` (stereo not drawn) [PIOGLITAZONE], the IC50 entry (at D(1A) dopamine receptor; in test [1]; at Endothelin-1 receptor; against Leukotriene C4 synthase; against Melanocortin receptor 4; in test [2]) was “Not Active” in each case.
As for `CCCNC(C)C(=O)Nc1ccccc1C` (stereo not drawn) [PRILOCAINE], the IC50 entry (at D(1A) dopamine receptor; in test [1]; against Endothelin-1 receptor; against Leukotriene C4 synthase; at Melanocortin receptor 4; in test [2]) was “Not Active” throughout.
Turning to `CCN(CC)CCNC(=O)c1ccc(N)cc1` [PROCAINAMIDE], the IC50 entry (on D(1A) dopamine receptor; in test [1]; against Endothelin-1 receptor; against Leukotriene C4 synthase; on Melanocortin receptor 4; in test [2]) was “Not Active” in each case.
`CCN(CC)CCCC(C)Nc1c2ccc(Cl)cc2nc2ccc(OC)cc12` (stereo not drawn) [QUINACRINE]: the IC50 result (at D(1A) dopamine receptor; in test [1]; against Endothelin-1 receptor; at Leukotriene C4 synthase; on Melanocortin receptor 4; in test [2]) was “Not Active” in each case.
For `C[C@]12C=CC(=O)C=C1CC[C@H]1[C@@H]3C[C@@H](O)[C@](O)(C(=O)CO)[C@@]3(C)C[C@H](O)[C@@]12F` [TRIAMCINOLONE], the IC50 result (at D(1A) dopamine receptor; in test [1]; on Endothelin-1 receptor; at Leukotriene C4 synthase; at Melanocortin receptor 4; in test [2]) was “Not Active” throughout.
